{
  "source": "patent US20230220122A1",
  "about": "“METHOD FOR PRODUCTION OF FUNCTIONAL POLYSACCHARIDE AND COSMETIC COMPOSITION” (CARBOEXPERT INC., priority 2019, published 2023)",
  "test_system": "BALB/3T3 clone A31",
  "test": "in vitro 3T3 NRU phototoxicity test",
  "type": "cell-based",
  "settings": "for PIF (Photo irritation factor): calculated from IC50 with and without UV (Phototox 2.6)",
  "procedure": "This test was to evaluate phototoxicity after treating cells of BALB/3T3 clone A31 with a sample in the in vitro 3T3 NRU phototoxicity test. The phototoxicity was identified by evaluating cell viability, IC50 according to the presence or absence of light irradiation, and phototoxicity according to concentration response [photo irritation factor (PIF), and mean photo effect (MPE)].\nIn addition, as a negative control group, PBS diluted in DMEM was used.\nEach of test substances was dissolved in PBS and diluted in steps at […] 2.\nUVA (315-400 nm) causing a phototoxic reaction by activating chemical materials without toxicity to cells was irradiated, and the amount of light was 5 J/cm^2.\n100 μl of cell suspension (1×10^4 cells/well) and medium were dispensed into two 96 well plates per group, and the cells were cultured for 24 hours in a cell incubator at 37° C. and 5% CO^2.\nAfter removing the medium, the cells were washed once with 150 μl of warm PBS.\nThe UV irradiation plate was irradiated with UVA at a light intensity of 5 J/cm^2, and while UV was irradiated, the non-irradiated plate was shielded with aluminum foil and left at room temperature. After removing the solution, washing was performed twice with 150 μl of warm PBS. 100 μl of the medium was dispensed and the cells were cultured for 20±2 hours in a cell incubator at 37° C. and 5% CO2.\nThe growth and morphology of the cells were observed using a microscope, the medium was removed therefrom, and then the cells were washed once with 150 μl of warm PBS. After dispensing 100 μl of neutral red medium, the cells were incubated for 3 hours in a cell incubator at 37° C. and 5% CO2. After removing the neutral red medium, the cells were washed once with 150 μl of warm PBS. 150 μl of neutral red extract was dispensed, and the plate was stirred for 10 minutes while light was shielded.\nAbsorbance was measured at a wavelength of 540 nm by using a multi-channel microplate reader.\nPhototoxicity was judged by calculating PIF and MPE values using IC50 according to the presence or absence of light irradiation.\nPIF and MPE values were calculated from the measured absorbance values by using the software (Phototox 2.6, ZEBET at the BFR, Berlin Germany), and no statistical method was performed.",
  "note": "“And” between values parts separate entries of the source, which are not always exact repeats. Equal values may be shown once.",
  "data": [
    {"smiles": "CN(C)CCCN1c2ccccc2Sc2ccc(Cl)cc21", "note": "[CPZ]", "values": [
      {"measurement": "Cell viability (% of NC)", "setting": "UV (+), 0.04 μg/mL", "value": "102.67 % of NC"},
      {"measurement": "Cell viability (% of NC)", "setting": "UV (+), 0.08 μg/mL", "value": "89.09 % of NC"},
      {"measurement": "Cell viability (% of NC)", "setting": "UV (+), 0.16 μg/mL", "value": "98.75 % of NC"},
      {"measurement": "Cell viability (% of NC)", "setting": "UV (+), 0.31 μg/mL", "value": "106.73 % of NC"},
      {"measurement": "Cell viability (% of NC)", "setting": "UV (+), 0.63 μg/mL", "value": "103.10 % of NC"},
      {"measurement": "Cell viability (% of NC)", "setting": "UV (+), 2.5 μg/mL", "value": "11.51 % of NC"},
      {"measurement": "Cell viability (% of NC)", "setting": "UV (+), 5 μg/mL", "value": "12.32 % of NC"},
      {"measurement": "IC50 (50% inhibitory concentration, cell viability)", "setting": "UV (+), UVA 5 J/cm^2, listed as PC", "value": 1.650, "unit": "µg/mL"},
      {"measurement": "Cell viability (% of NC)", "setting": "UV (−), 1.56 μg/mL", "value": "109.65 % of NC"},
      {"measurement": "Cell viability (% of NC)", "setting": "UV (−), 3.13 μg/mL", "value": "103.07 % of NC"},
      {"measurement": "Cell viability (% of NC)", "setting": "UV (−), 6.25 μg/mL", "value": "114.87 % of NC"},
      {"measurement": "Cell viability (% of NC)", "setting": "UV (−), 25 μg/mL", "value": "65.55 % of NC"},
      {"measurement": "Cell viability (% of NC)", "setting": "UV (−), 50 μg/mL", "value": "9.50 % of NC"},
      {"measurement": "Cell viability (% of NC)", "setting": "UV (−), 100 μg/mL", "value": "9.37 % of NC"},
      {"measurement": "Cell viability (% of NC)", "setting": "UV (−), 200 μg/mL", "value": "9.31 % of NC"},
      {"measurement": "IC50 (50% inhibitory concentration, cell viability)", "setting": "UV (−), UV not irradiated, listed as PC", "value": 28.043, "unit": "µg/mL"},
      {"measurement": "PIF (Photo irritation factor)", "setting": "listed as PC", "value": 17.144},
      {"measurement": "PIF (Photo irritation factor)", "setting": "listed as positive control material", "value": "17.1444 and 17.144"},
      {"measurement": "MPE (Mean photo effect)", "setting": "calculated from concentration response with and without UV (Phototox 2.6)", "value": 0.459}
    ]}
  ]
}
